Experimental data from US9365512B2, “Isoindoline derivatives, pharmaceutical compositions containing them, and their use in therapy” (AbbVie Deutschland GmbH & Co. KG, priority 2012, dated 2016).

target: T1, human GlyT1c transporter (Homo sapiens, UniProt P48067); assay: Radioligand binding assay using recombinant CHO cell membranes expressing human GlyT1; conditions: read-out: radioligand binding Kiapp
T1 construct: expressed in transfected cells; host or cells: CHO cells (recombinant; membranes)
T1 sequence (P48067 1-706): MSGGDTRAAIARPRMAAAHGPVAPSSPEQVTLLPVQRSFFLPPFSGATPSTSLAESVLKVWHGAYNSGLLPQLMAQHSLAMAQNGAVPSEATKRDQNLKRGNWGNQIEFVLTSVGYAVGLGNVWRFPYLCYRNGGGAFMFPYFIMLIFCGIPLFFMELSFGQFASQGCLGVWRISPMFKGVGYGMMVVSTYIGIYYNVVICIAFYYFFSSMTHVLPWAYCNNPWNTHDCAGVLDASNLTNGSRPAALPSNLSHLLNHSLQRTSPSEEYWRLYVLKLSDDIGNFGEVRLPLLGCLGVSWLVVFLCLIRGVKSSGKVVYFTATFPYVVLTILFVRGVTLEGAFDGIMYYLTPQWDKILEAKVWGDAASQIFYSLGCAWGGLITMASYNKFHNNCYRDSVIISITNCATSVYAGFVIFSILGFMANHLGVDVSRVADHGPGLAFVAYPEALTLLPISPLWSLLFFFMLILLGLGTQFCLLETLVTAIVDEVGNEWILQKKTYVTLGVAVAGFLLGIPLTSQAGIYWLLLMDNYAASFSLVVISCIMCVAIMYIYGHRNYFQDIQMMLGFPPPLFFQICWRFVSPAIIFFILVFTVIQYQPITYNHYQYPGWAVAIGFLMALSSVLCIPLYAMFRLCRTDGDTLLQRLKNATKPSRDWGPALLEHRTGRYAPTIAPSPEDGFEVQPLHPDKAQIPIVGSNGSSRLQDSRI
Method: 2. Radioligand Binding Assays Using Recombinant CHO Cell Membranes Expressing Human GlyT1:
Radioligand binding to human GlyT1c transporter-expressing membranes was determined as described in Mezler et al., Molecular Pharmacology 74:1705-1715, 2008.

Compound | Ki
Cn1cc(S(=O)(=O)NCCOc2ccc3c(c2)C(Cc2ccccc2)NC3)cn1 (centres unmarked) [Example 7, N-[2-(3-Benzylisoindolin-5-yl)oxyethyl]-1-methyl-1H-pyrazole-4-sulfonamide] | < 100 nM
CCS(=O)(=O)NCCOc1cc2c(cc1F)CNC2Cc1ccccc1 (centres unmarked) [Example 25, Ethanesulfonic acid [2-(3-benzyl-6-fluoro-2,3-dihydro-1H-isoindol-5-yloxy)-ethyl]-amide] | < 10000 nM
O=S(=O)(CC1CC1)NCCOc1cc2c(cc1F)CNC2Cc1ccccc1 (centres unmarked) [Example 23, N-[2-(3-Benzyl-6-fluoro-2,3-dihydro-1H-isoindol-5-yloxy)-ethyl]-C-cyclopropyl-methanesulfonamide] | < 1000 nM
CC1(Cc2ccccc2)NCc2ccc(OCCNS(=O)(=O)CC3CC3)cc21 (centres unmarked) [Example 18, N-[2-(3-Benzyl-3-methyl-isoindolin-5-yl)oxyethyl]-1-cyclopropyl-methanesulfonamide; 2,2,2-trifluoroacetic acid] | < 1000 nM
CCCS(=O)(=O)NCc1ccc2c(c1)C(Cc1ccccc1)NC2=O (centres unmarked) [Example 28, Propane-1-sulfonic acid (3-benzyl-1-oxo-2,3-dihydro-1H-isoindol-5-ylmethyl)-amide] | < 10000 nM
Cn1cc(S(=O)(=O)NCCOc2ccc3c(c2)C(Cc2ccccc2)N(CC(F)(F)F)C3)cn1 (centres unmarked) [Example 15, N-[2-[3-Benzyl-2-(2,2,2-trifluoroethyl)isoindolin-5-yl]oxyethyl]-1-methyl-1H-pyrazole-4-sulfonamide; 2,2,2-trifluoroacetic acid] | < 1000 nM
Cn1cc(S(=O)(=O)NCCOc2ccc3c(c2)C(Cc2ccccc2)N(C(=O)C(F)(F)F)C3)cn1 (centres unmarked) [Example 12] | < 1000 nM
CN1Cc2ccc(OCCNS(=O)(=O)c3cnn(C)c3)cc2C1Cc1ccccc1 (centres unmarked) [Example 13, N-[2-(3-Benzyl-2-methyl-isoindolin-5-yl)oxyethyl]-1-methyl-1H-pyrazole-4-sulfonamide; 2,2,2-trifluoroacetic acid] | < 10 nM
CN1Cc2ccc(OCCNS(=O)(=O)c3cn(C)cn3)cc2C1Cc1ccccc1 (centres unmarked) [Example 14, N-[2-(3-Benzyl-2-methyl-isoindolin-5-yl)oxyethyl]-1-methyl-1H-imidazole-4-sulfonamide; 2,2,2-trifluoroacetic acid] | < 100 nM
CN1Cc2cc(F)c(OCCNS(=O)(=O)CC3CC3)cc2C1Cc1ccccc1 (centres unmarked) [Example 20, N-(2-(3-Benzyl-6-fluoro-2-methylisoindolin-5-yloxy)ethyl)-1-cyclopropyl-methanesulfonamide] | < 1000 nM
CCS(=O)(=O)NCCOc1cc2c(cc1F)C(=O)NC2Cc1ccccc1 (centres unmarked) [Example 24, Ethanesulfonic acid [2-(3-benzyl-6-fluoro-1-oxo-2,3-dihydro-1H-isoindol-5-yloxy)-ethyl]-amide] | < 10000 nM
Cn1cnc(S(=O)(=O)NCCOc2cc3c(cc2F)CNC3Cc2ccccc2)c1 (centres unmarked) [Example 21, 1-Methyl-1H-imidazole-4-sulfonic acid [2-(3-benzyl-6-fluoro-2,3-dihydro-1H-isoindol-5-yloxy)-ethyl]-amide] | < 100 nM
CCCS(=O)(=O)NCc1ccc2c(c1)C(Cc1ccccc1)NC2 (centres unmarked) [Example 31, Propane-1-sulfonic acid (3-benzyl-2,3-dihydro-1H-isoindol-5-ylmethyl)-amide] | < 10000 nM
O=S(=O)(CC1CC1)NCc1ccc2c(c1)C(Cc1ccccc1)NC2 (centres unmarked) [Example 29, N-(3-Benzyl-2,3-dihydro-1H-isoindol-5-ylmethyl)-C-cyclopropyl-methanesulfonamide] | < 10000 nM
Cn1cnc(S(=O)(=O)NCCOc2ccc3c(c2)C(Cc2ccccc2)NC3=O)c1 (centres unmarked) [Example 1, N-[2-(3-benzyl-1-oxo-isoindolin-5-yl)oxyethyl]-1-methyl-1H-imidazole-4-sulfonamide] | < 1000 nM
Cn1cnc(S(=O)(=O)NCCOc2ccc3c(c2)C(C)(Cc2ccccc2)NC3=O)c1 (centres unmarked) [Example 8, N-[2-(3-Benzyl-3-methyl-1-oxo-isoindolin-5-yl)oxyethyl]-1-methyl-1H-imidazole-4-sulfonamide] | < 10000 nM
O=C1NC(Cc2ccccc2)c2cc(CNS(=O)(=O)CC3CC3)ccc21 (centres unmarked) [Example 26, N-(3-Benzyl-1-oxo-2,3-dihydro-1H-isoindol-5-ylmethyl)-C-cyclopropyl-methanesulfonamide] | < 10000 nM
CC1(Cc2ccccc2)NC(=O)c2ccc(OCCNS(=O)(=O)CC3CC3)cc21 (centres unmarked) [Example 17, N-[2-(3-Benzyl-3-methyl-1-oxo-isoindolin-5-yl)oxyethyl]-1-cyclopropyl-methanesulfonamide] | < 10000 nM
Cn1cnc(S(=O)(=O)NCc2ccc3c(c2)C(Cc2ccccc2)NC3=O)c1 (centres unmarked) [Example 2, N-[(3-Benzyl-1-oxo-isoindolin-5-yl)methyl]-1-methyl-1H-imidazole-4-sulfonamide] | < 1000 nM
Cn1cnc(S(=O)(=O)NCCOc2ccc3c(c2)C(C)(Cc2ccccc2)NC3)c1 (centres unmarked) [Example 11, N-[2-(3-Benzyl-3-methyl-isoindolin-5-yl)oxyethyl]-1-methyl-imidazole-4-sulfonamide] | < 100 nM
Cn1cc(S(=O)(=O)NCCOc2ccc3c(c2)C(Cc2ccccc2)N(C2COC2)C3)cn1 (centres unmarked) [Example 16, N-[2-[3-Benzyl-2-(oxetan-3-yl)isoindolin-5-yl]oxyethyl]-1-methyl-1H-pyrazole-4-sulfonamide; 2,2,2-trifluoroacetic acid] | < 100 nM
Cn1cc(S(=O)(=O)NCCOc2ccc3c(c2)C(C)(Cc2ccccc2)NC3)cn1 (centres unmarked) [Example 10, N-[2-(3-Benzyl-3-methyl-isoindolin-5-yl)oxyethyl]-1-methyl-1H-pyrazole-4-sulfonamide] | < 100 nM
Cn1cc(S(=O)(=O)NCCOc2ccc3c(c2)C(C)(Cc2ccccc2)NC3=O)cn1 (centres unmarked) [Example 9, N-[2-(3-Benzyl-3-methyl-1-oxo-isoindolin-5-yl)oxyethyl]-1-methyl-1H-pyrazole-4-sulfonamide] | < 10000 nM
O=C1NC(Cc2ccccc2)c2cc(OCCNS(=O)(=O)CC3CC3)c(F)cc21 (centres unmarked) [Example 22, N-[2-(3-Benzyl-6-fluoro-1-oxo-2,3-dihydro-1H-isoindol-5-yloxy)-ethyl]-C-cyclopropyl-methanesulfonamide] | < 10000 nM
CCS(=O)(=O)NCc1ccc2c(c1)C(Cc1ccccc1)NC2 (centres unmarked) [Example 30, Ethanesulfonic acid (3-benzyl-2,3-dihydro-1H-isoindol-5-ylmethyl)-amide] | < 100000 nM
Cn1cc(S(=O)(=O)NCCOc2ccc3c(c2)C(Cc2ccccc2)NC3=O)cn1 (centres unmarked) [Example 6, N-[2-(3-Benzyl-1-oxo-isoindolin-5-yl)oxyethyl]-1-methyl-1H-pyrazole-4-sulfonamide] | < 10000 nM
Cn1cnc(S(=O)(=O)NCCOc2cc3c(cc2F)C(=O)NC3Cc2ccccc2)c1 (centres unmarked) [Example 19, N-[2-(3-Benzyl-6-fluoro-1-oxo-isoindolin-5-yl)oxyethyl]-1-methyl-1H-imidazole-4-sulfonamide] | < 1000 nM
CC(C)(C)OC(=O)NCCOc1ccc2c(c1)C(Cc1ccccc1)NC2=O (centres unmarked) [Example 3, [2-(3-Benzyl-1-oxo-2,3-dihydro-1H-isoindol-5-yloxy)-ethyl]-carbamic acid tert-butyl ester] | > 10000 nM

system: not listed separately; assay: Metabolic stability in human liver microsomes (microsomal clearance); format: in vitro ADME; conditions: 0.5 μM test substance, 0.25 mg microsomal protein/ml, pH 7.4, 37° C., NADPH
Method: The metabolic stability of a compound can be measured for example by incubating a solution of this compound with liver microsomes from particular species (for example rat, dog or human) and determining the half-life of the compound under these conditions (RS Obach, Curr Opin Drug Discov Devel. 2001, 4, 36-44). It is possible in this connection to conclude from an observed longer half-life that the metabolic stability of the compound is improved. The stability in the presence of human liver microsomes is of particular interest because it makes it possible to predict the metabolic degradation of the compound in the human liver. Compounds with increased metabolic stability (measured in the liver microsome test) are therefore probably also degraded more slowly in the liver. The slower metabolic degradation in the liver may lead to higher and/or longer-lasting concentrations (active levels) of the compound in the body, so that the elimination half-life of the compounds of the invention is increased. Increased and/or longer-lasting active levels may lead to a better activity of the compound in therapeutic treatment. […]
Metabolic stability was determined as follows:
0.5 μM test substance was preincubated together with human liver microsomes (0.25 mg of microsomal protein/ml) in 0.05 M potassium phosphate buffer of pH 7.4 in microtiter plates at 37° C. for 5 min. […] The samples were frozen until analyzed. The remaining concentration of undegraded test substance was determined by LC MSMS. The half-life (T½) was determined from the gradient of the signal of test substance/unit time plot, allowing to calculate the half-life of the test substance, assuming first order kinetics, from the decrease in the concentration of the compound with time. The microsomal clearance (mCl) was calculated from mCl=ln 2/T½/(content of microsomal protein in mg/ml)×1000 (modified from references: Di, The Society for Biomolecular Screening, 2003, 453-462; Obach, DMD, 1999 vol 27. N 11, 1350-1359).

Compound | human mCl
Cn1cc(S(=O)(=O)NCCOc2ccc3c(c2)C(Cc2ccccc2)NC3)cn1 (centres unmarked) [Example 7, N-[2-(3-Benzylisoindolin-5-yl)oxyethyl]-1-methyl-1H-pyrazole-4-sulfonamide] | <10 µL/min/mg
